According to PMC6017357, “In Vitro Inhibitory Effects of Synthetic Cannabinoid EAM-2201 on Cytochrome P450 and UDP-Glucuronosyltransferase Enzyme Activities in Human Liver Microsomes” (Molecules : A Journal of Synthetic Chemistry and Natural …, 2018):

Molecular target: T1, CYP1A2 (Homo sapiens, UniProt P05177)
T1 construct: from tissue; host or cells: ultrapooled human liver microsomes
T1 sequence (P05177 1-516): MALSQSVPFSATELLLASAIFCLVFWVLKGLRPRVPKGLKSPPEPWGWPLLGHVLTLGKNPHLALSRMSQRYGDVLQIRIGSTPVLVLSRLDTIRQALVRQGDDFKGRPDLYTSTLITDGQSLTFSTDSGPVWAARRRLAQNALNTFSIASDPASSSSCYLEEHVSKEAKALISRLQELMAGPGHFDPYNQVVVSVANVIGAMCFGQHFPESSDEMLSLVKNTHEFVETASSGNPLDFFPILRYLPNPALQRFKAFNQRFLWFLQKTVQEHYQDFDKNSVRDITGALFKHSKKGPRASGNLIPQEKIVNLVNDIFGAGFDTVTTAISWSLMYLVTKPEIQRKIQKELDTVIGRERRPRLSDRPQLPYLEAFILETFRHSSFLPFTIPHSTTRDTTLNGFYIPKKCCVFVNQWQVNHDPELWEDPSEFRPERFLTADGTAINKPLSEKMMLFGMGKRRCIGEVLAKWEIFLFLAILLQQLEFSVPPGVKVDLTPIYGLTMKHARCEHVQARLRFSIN
Assay: CYP1A2-mediated phenacetin O-deethylation in pooled human liver microsomes
Format: in vitro ADME
Conditions: up to 50 µM, without 30-min preincubation
Description: The inhibitory potential (IC50 values) of EAM-2201 on CYP1A2, CYP2A6, CYP2C8, CYP2C9, CYP2C19, CYP2D6 and CYP3A4 were evaluated using ultrapooled human liver microsomes and a cocktail of seven CYP substrates followed by LC-tandem mass spectrometry (LC-MS/MS) as previously described. […] Aliquots (5 µL) of the diluted supernatants were analyzed using LC-MS/MS. […]
The metabolites formed from CYP substrates were simultaneously quantified using our previously described LC-MS/MS method. […] Quantification was performed by selected reaction monitoring (SRM) of the [M + H]^+ ion and the related product ion for each metabolite: acetaminophen, 152.1 > 110.3; N-desethylamodiaquine, 328.1 > 283.0; 7-hydroxycoumarin, 163.0 > 107.2; 4-hydroxybupropion, 256.1 > 238.0; 4′-hydroxydiclofenac, 312.0 > 231.1; 4′-hydroxy-mephenytoin, 235.1 > 150.1; 1′-hydroxybufuralol, 278.1 > 186.1; 1′-hydroxymidazolam, 341.9 > 324.0; ^13C2,^15N-acetaminophen, 155.1 > 111.2; and d9-1′-hydroxybufuralol, 287.2 > 187.0. […]

CCc1ccc(C(=O)c2cn(CCCCCF)c3ccccc23)c2ccccc12 [EAM-2201, (4-ethyl-1-naphthalenyl)[1-(5-fluoropentyl)-1H-indol-3-yl]-methanone]
inhibition of CYP1A2-mediated phenacetin O-deethylation: negligibly inhibited
